Activity calls are given as the source filed them. The rule behind the calls is not given here.
System: CCRIS mutagenicity, Ames/micronucleus/aberration tests
Experiment: CCRIS mutagenicity studies

Measured: mutagenic call

CCC1CO1 (stereo unspecified)
inactive: End Point: IN VITRO CHROMOSOMAL ABERRATIONS, Test System: CHO CELLS, Metabolic Activation: NONE inactive; negative; authors report a positive response at the highest dose but few cells c | Test System: AMES SALMONELLA TYPHIMURIUM, Strain/Indicator: TA98, Metabolic Activation: HAMSTER, LIVER, S-9, AROCLOR 1254, Method: PREINCUBATION inactive; negative | Test System: AMES SALMONELLA TYPHIMURIUM, Strain/Indicator: TA98, Metabolic Activation: NONE, Method: FLUCTUATION (MICROTITER) inactive; negative | Test System: AMES SALMONELLA TYPHIMURIUM, Strain/Indicator: TA98, Metabolic Activation: NONE, Method: PREINCUBATION inactive; negative | Test System: AMES SALMONELLA TYPHIMURIUM, Strain/Indicator: TA98, Metabolic Activation: NONE, Method: STANDARD PLATE inactive; negative | Test System: AMES SALMONELLA TYPHIMURIUM, Strain/Indicator: TA98, Metabolic Activation: RAT LIVER S-9, AROCLOR 1254, Method: FLUCTUATION (MICROTITER) inactive; negative | Test System: AMES SALMONELLA TYPHIMURIUM, Strain/Indicator: TA98, Metabolic Activation: RAT, LIVER, S-9, AROCLOR 1254, Method: PREINCUBATION inactive; negative | Test System: AMES SALMONELLA TYPHIMURIUM, Strain/Indicator: TA1537, Metabolic Activation: HAMSTER, LIVER, S-9, AROCLOR 1254, Method: PREINCUBATION inactive; negative | Test System: AMES SALMONELLA TYPHIMURIUM, Strain/Indicator: TA1537, Metabolic Activation: NONE, Method: FLUCTUATION (MICROTITER) inactive; negative | Test System: AMES SALMONELLA TYPHIMURIUM, Strain/Indicator: TA1537, Metabolic Activation: NONE, Method: PREINCUBATION inactive; negative | Test System: AMES SALMONELLA TYPHIMURIUM, Strain/Indicator: TA1537, Metabolic Activation: RAT LIVER S-9, AROCLOR 1254, Method: FLUCTUATION (MICROTITER) inactive; negative | Test System: AMES SALMONELLA TYPHIMURIUM, Strain/Indicator: TA1537, Metabolic Activation: RAT, LIVER, S-9, AROCLOR 1254, Method: PREINCUBATION inactive; negative | Test System: AMES SALMONELLA TYPHIMURIUM, Strain/Indicator: TA7001, Metabolic Activation: NONE, Method: FLUCTUATION (MICROTITER) inactive; negative | Test System: AMES SALMONELLA TYPHIMURIUM, Strain/Indicator: TA7001, Metabolic Activation: RAT LIVER S-9, AROCLOR 1254, Method: FLUCTUATION (MICROTITER) inactive; negative | Test System: AMES SALMONELLA TYPHIMURIUM, Strain/Indicator: TA7002, Metabolic Activation: NONE, Method: FLUCTUATION (MICROTITER) inactive; negative | Test System: AMES SALMONELLA TYPHIMURIUM, Strain/Indicator: TA7002, Metabolic Activation: RAT LIVER S-9, AROCLOR 1254, Method: FLUCTUATION (MICROTITER) inactive; negative | Test System: AMES SALMONELLA TYPHIMURIUM, Strain/Indicator: TA7003, Metabolic Activation: NONE, Method: FLUCTUATION (MICROTITER) inactive; negative | Test System: AMES SALMONELLA TYPHIMURIUM, Strain/Indicator: TA7003, Metabolic Activation: RAT LIVER S-9, AROCLOR 1254, Method: FLUCTUATION (MICROTITER) inactive; negative | Test System: AMES SALMONELLA TYPHIMURIUM, Strain/Indicator: TA7004, Metabolic Activation: RAT LIVER S-9, AROCLOR 1254, Method: FLUCTUATION (MICROTITER) inactive; negative | Test System: AMES SALMONELLA TYPHIMURIUM, Strain/Indicator: TA7005, Metabolic Activation: NONE, Method: FLUCTUATION (MICROTITER) inactive; negative | Test System: AMES SALMONELLA TYPHIMURIUM, Strain/Indicator: TA7005, Metabolic Activation: RAT LIVER S-9, AROCLOR 1254, Method: FLUCTUATION (MICROTITER) inactive; negative | Test System: AMES SALMONELLA TYPHIMURIUM, Strain/Indicator: TA7006, Metabolic Activation: NONE, Method: FLUCTUATION (MICROTITER) inactive; negative | Test System: AMES SALMONELLA TYPHIMURIUM, Strain/Indicator: TA7006, Metabolic Activation: RAT LIVER S-9, AROCLOR 1254, Method: FLUCTUATION (MICROTITER) inactive; negative | Test System: E. COLI, Strain/Indicator: WP2 UVRA, Metabolic Activation: HAMSTER, LIVER, S-9, AROCLOR 1254, Method: PREINCUBATION inactive; negative | Test System: E. COLI, Strain/Indicator: WP2 UVRA, Metabolic Activation: HAMSTER, LIVER, S-9, AROCLOR 1254, Method: STANDARD PLATE inactive; negative | Test System: E. COLI, Strain/Indicator: WP2 UVRA, Metabolic Activation: HAMSTER, LIVER, S-9, Method: STANDARD PLATE inactive; negative | Test System: E. COLI, Strain/Indicator: WP2 UVRA, Metabolic Activation: MOUSE, LIVER, S-9, AROCLOR 1254, Method: PREINCUBATION inactive; negative | Test System: E. COLI, Strain/Indicator: WP2 UVRA, Metabolic Activation: MOUSE, LIVER, S-9, AROCLOR 1254, Method: STANDARD PLATE inactive; negative | Test System: E. COLI, Strain/Indicator: WP2 UVRA, Metabolic Activation: MOUSE, LIVER, S-9, Method: PREINCUBATION inactive; negative | Test System: E. COLI, Strain/Indicator: WP2 UVRA, Metabolic Activation: MOUSE, LIVER, S-9, Method: STANDARD PLATE inactive; negative | Test System: E. COLI, Strain/Indicator: WP2 UVRA, Metabolic Activation: NONE, Method: PREINCUBATION inactive; negative | Test System: E. COLI, Strain/Indicator: WP2 UVRA, Metabolic Activation: NONE, Method: STANDARD PLATE inactive; negative | Test System: E. COLI, Strain/Indicator: WP2 UVRA, Metabolic Activation: RAT, LIVER, S-9, AROCLOR 1254, Method: PREINCUBATION inactive; negative | Test System: E. COLI, Strain/Indicator: WP2 UVRA, Metabolic Activation: RAT, LIVER, S-9, AROCLOR 1254, Method: STANDARD PLATE inactive; negative | Test System: E. COLI, Strain/Indicator: WP2 UVRA, Metabolic Activation: RAT, LIVER, S-9, Method: PREINCUBATION inactive; negative | Test System: E. COLI, Strain/Indicator: WP2 UVRA, Metabolic Activation: RAT, LIVER, S-9, Method: STANDARD PLATE inactive; negative
active: End Point: IN VITRO CHROMOSOMAL ABERRATIONS, Test System: HUMAN PERIPHERAL LYMPHOCYTES, Metabolic Activation: NONE, Method: FISH (DUAL COLOR FOR CHROMOSOMES 7, 8, 12 AND X) active; positive (hyperdiploidy of chromosomes 12 and x) | End Point: IN VITRO MICRONUCLEUS, Test System: HUMAN PERIPHERAL LYMPHOCYTES, Metabolic Activation: NONE active; positive | Test System: AMES SALMONELLA TYPHIMURIUM, Strain/Indicator: TA100, Metabolic Activation: HAMSTER, LIVER, S-9, AROCLOR 1254, Method: PREINCUBATION active; positive | Test System: AMES SALMONELLA TYPHIMURIUM, Strain/Indicator: TA100, Metabolic Activation: NONE, Method: PREINCUBATION active; positive | Test System: AMES SALMONELLA TYPHIMURIUM, Strain/Indicator: TA100, Metabolic Activation: RAT, LIVER, S-9, AROCLOR 1254, Method: PREINCUBATION active; positive | Test System: AMES SALMONELLA TYPHIMURIUM, Strain/Indicator: TA1535, Metabolic Activation: HAMSTER, LIVER, S-9, AROCLOR 1254, Method: PREINCUBATION active; positive | Test System: AMES SALMONELLA TYPHIMURIUM, Strain/Indicator: TA1535, Metabolic Activation: NONE, Method: PREINCUBATION active; positive | Test System: AMES SALMONELLA TYPHIMURIUM, Strain/Indicator: TA1535, Metabolic Activation: NONE, Method: STANDARD PLATE active; positive | Test System: AMES SALMONELLA TYPHIMURIUM, Strain/Indicator: TA1535, Metabolic Activation: RAT, LIVER, S-9, AROCLOR 1254, Method: PREINCUBATION active; positive | Test System: AMES SALMONELLA TYPHIMURIUM, Strain/Indicator: TA7004, Metabolic Activation: NONE, Method: FLUCTUATION (MICROTITER) active; positive

— PubChem BioAssay AID1259407 (Chemical Carcinogenesis Research Information System (CCRIS), 2018)
